Earlier results as cited in US20110251275A1, “OMEGA-3 FATTY ACIDS FOR REDUCTION OF LP-PLA2 LEVELS” (priority 2006, published 2011).

Tested on: Lp-PLA2
Conditions: for reduction of Lp-PLA2: Tsimihodimos et al. 2002, patients treated

CC(C)c1c(C(=O)Nc2ccccc2)c(-c2ccccc2)c(-c2ccc(F)cc2)n1CC[C@@H](O)C[C@@H](O)CC(=O)O [atorvastatin]
reduced Lp-PLA2 levels (O'Donoghue et al. 2006): 20%
reduction of Lp-PLA2: 28-42%

CC(C)OC(=O)C(C)(C)Oc1ccc(C(=O)c2ccc(Cl)cc2)cc1 [fenofibrate, 2-[4-(4-chlorobenzoyl)phenoxy]-2-methyl-propanoic acid, 1-methylethyl ester]
reduction of Lp-PLA2: 22-28%
